Results: paper PMC1413570, “Testing Electrostatic Complementarity in Enzyme Catalysis: Hydrogen Bonding in the Ketosteroid Isomerase Oxyanion Hole” (PLoS Biology, 2006)
Like-named read-outs stand apart in the source and are kept apart here. Marks after values point to notes of the source that are not given here.

Assays:
[1] = Enthalpies of ionization of phenols by titration with NaOH; type: physicochemical
Source text: The enthalpy of ionization of HEPES, used to correct for proton transfer to buffer, is 5.02 kcal/mol [ [149]].

[2] = biological target: pKSI^D40N (ketosteroid isomerase) (Pseudomonas putida, UniProt P07445, D34C/D40N); assay: biochemical; type: binding
[3] = biological target: tKSI^D40N (ketosteroid isomerase) (Comamonas testosteroni, UniProt P00947, D38N); assay: biochemical; type: binding, Commamonas testosteroni
pKSI^D40N = pKSI^D40N (Pseudomonas putida, UniProt P07445, D34C/D40N); type: binding; conditions: pH 7.2, 25 °C
Procedure: Briefly, the affinity and enthalpy of binding of a high-affinity reference ligand (L ref) were first determined by direct titration of KSI ( Figure 14A) [ [147]]. […] Prior to ITC experiments, enzyme was dialyzed into buffer containing 10 mM HEPES (pH 7.2), 100 mM NaCl, 0.1 mM EDTA, 0.1 mM Tri(2-carboxyethyl)phosphine hydrochloride. All ligands were dissolved in the final dialysis buffer, and all samples were degassed under vacuum. ITC experiments were performed using a VP-ITC (MicroCal, Northampton, Massachusetts, United States) at 25 °C.
After background subtraction, the data were fit by nonlinear least squares regression using a displacement model, with the stoichiometry, association constant, and change of enthalpy of interaction of the weak ligand as the free variables, and the association constant and change of enthalpy of the tight ligand fixed based on the values obtained from direct titration [ [146]].

[4] = Determination of phenol pKa values (literature or spectral titration)
tKSI^D40N [5] = biological target: T1, tKSI^D40N (Comamonas testosteroni, UniProt P00947, D38N); design: species or system Commamonas testosteroni; conditions: for δ1, chemical shift of most downfield peak in complex / δ2, chemical shift of second downfield peak in complex: pH 7.2, −3 °C
[6] = from literature; cited from earlier work
[7] = design: method as in earlier work; conditions: cited from earlier work
tKSI^D40N [8] = biological target: T1, tKSI^D40N; conditions: read-out: apparent affinity, previous assay; pH 7; cited from earlier work
KSI = biological target: KSI; design: method as in PMID 7918439; conditions: less precise estimate; read-out: affinity of equilenin estimated by previous assays; cited from earlier work
[9] = pH 8, errors in parenthesis are average deviations, read-out: apparent affinity at pH 8 ([picture])
[10] = Displacement assay, phenolate form
[11] = Displacement assay, uncorrected for enzyme ionization enthalpy
[12] = solution with ionic strength 100 mM maintained with NaCl
[13] = spectral titration, 25 °C, ionic strength 100 mM
[14] = apparent affinity at pH 8 ([picture]), pH 8, errors in parenthesis are average deviations

pKSI^D40N (ketosteroid isomerase), sequence (P07445 whole entry D34C/D40N): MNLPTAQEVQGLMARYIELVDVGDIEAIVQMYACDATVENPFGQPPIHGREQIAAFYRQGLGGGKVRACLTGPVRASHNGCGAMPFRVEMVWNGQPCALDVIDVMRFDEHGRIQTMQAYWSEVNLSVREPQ
pKSI^D40N, sequence (P07445 whole entry D34C/D40N): as above
tKSI^D40N (ketosteroid isomerase), sequence (P00947 whole entry D38N): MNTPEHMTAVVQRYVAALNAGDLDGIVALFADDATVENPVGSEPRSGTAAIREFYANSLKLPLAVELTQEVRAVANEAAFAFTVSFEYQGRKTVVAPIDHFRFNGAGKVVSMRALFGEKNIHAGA
T1 sequence (P00947 whole entry D38N, looked up): as the sequence (P00947 whole entry D38N) above

With `Oc1cc(F)cc(F)c1` [3,5-F2] the “∆Hion (heat of ionization)” value ([1]; Ionic strength 0.1) was 5.73 (0.07), the Kd [2, 9] was 8.4 µM and the Kd [3, 9] was 20 µM. The “∆G of binding” value (pKSI^D40N; Direct Titration) was -11.23 (0.03) kcal/mol, the “∆Hrel (relative enthalpy of binding)” value (pKSI^D40N; Direct Titration) was -6.9 (0.1) kcal/mol and the “∆G of binding” value (pKSI^D40N; [10]) was -11.1 (0.2) kcal/mol. For the same compound, the “∆Hrel (relative enthalpy of binding)” value (pKSI^D40N; [11]) was -6.7 (0.8) kcal/mol.
With `Cc1cc(O)ccc1F` [Phenol 4-F-3-CH3, 4-Fluoro-3-methylphenol] the pKa [4, 12] was 9.8.
For `O=[N+]([O-])c1ccc(O)cc1F` [Phenol 3-F-4-NO2, 3-fluoro-4-nitrophenol], the pKa (physchem) was 6.1, the “δ1, chemical shift of most downfield peak in complex” value (“δ1, chemical shift” below) (tKSI^D40N [5]) was 14.4 ppm and the “δ2, chemical shift of second downfield peak in complex” value (“δ2, chemical shift” for short) (tKSI^D40N [5]) was 14.3 ppm.
In the case of `Oc1cc(Cl)cc(Cl)c1` [3,5-Cl2], the pKa [4, 13] is reported as 8.1, the “δ1, chemical shift” value (tKSI^D40N [5]) is reported as 16.6 ppm and the “δ2, chemical shift” value (tKSI^D40N [5]) is reported as 14.8 ppm.
In the case of `N#Cc1cccc(O)c1` [Phenol 3-CN], the “δ1, chemical shift” value (tKSI^D40N [5]) is reported as 16.4 ppm and the “δ2, chemical shift” value (tKSI^D40N [5]) is reported as 15.6 ppm.
In the case of `Oc1ccc(F)c(F)c1F` [2,3,4-F3], the pKa [4, 13] is reported as 7.7^b.
In the case of `Oc1c(F)c(F)c(F)c(F)c1F` [pentafluorophenol], the pKa (physchem) is reported as 5.7.
For `O=[N+]([O-])c1cc(O)ccc1Cl` [Phenol 3-NO2-4-Cl], the pKa [4, 13] was 7.8, the “δ1, chemical shift” value (tKSI^D40N [5]) was 15.8 ppm and the “δ2, chemical shift” value (tKSI^D40N [5]) was 15.4 ppm.
In the case of `Oc1cccc(F)c1F` [2,3-F2], the pKa [4, 13] is reported as 7.7^b.
In the case of `O=[N+]([O-])c1cccc(O)c1` [Phenol 3-NO2], the “δ1, chemical shift” value (tKSI^D40N [5]) is reported as 16.4 ppm and the “δ2, chemical shift” value (tKSI^D40N [5]) is reported as 15.5 ppm.
In the case of `Oc1cccc(Br)c1` [Phenol 3-Br], the “δ1, chemical shift” value (tKSI^D40N [5]) is reported as 17.0 ppm and the “δ2, chemical shift” value (tKSI^D40N [5]) is reported as 15.6 ppm.
In the case of `Oc1cccc(F)c1` [Phenol 3-F, 3-fluorophenol], the “∆Hion (heat of ionization)” value ([1]; Ionic strength 0.1) is reported as 6.29 (0.05), the Kd [2, 14] is reported as 41 µM and the Kd [3] is reported as 110 µM. The “∆G of binding” value (pKSI^D40N; [10]) was -11.10 (0.05) kcal/mol.
For `Oc1ccc(Cl)c(Cl)c1` [3,4-Cl2, 3,4-dichlorophenol], the pKa (physchem) was 8.5, the “δ1, chemical shift” value (tKSI^D40N [5]) was 16.4 ppm and the “δ2, chemical shift” value (tKSI^D40N [5]) was 15.6 ppm.
In the case of `Oc1ccc(C(F)(F)F)cc1` [Phenol 4-CF3], the pKa [4, 13] is reported as 8.9, the “δ1, chemical shift” value (tKSI^D40N [5]) is reported as 16.4 ppm and the “δ2, chemical shift” value (tKSI^D40N [5]) is reported as 15.9 ppm.
For `O=[N+]([O-])c1ccc(O)cc1` [Phenol 4-NO2, 4-nitrophenol], the Kd ([2]; apparent affinity of the phenol for the enzyme (Equation 3), pH 6.9) was 1.8 ± 0.2 µM, the Kd ([2]; pH-independent affinity of the phenolate form for the protonated enzyme (Equation 4), converted from apparent affinity at pH 6.9) was 0.026 ± 0.002 µM and the “δ1, chemical shift” value (tKSI^D40N [5]) was 15.0 ppm. The “δ2, chemical shift” value (tKSI^D40N [5]) was 14.8 ppm.
For `Oc1cccc(I)c1` [Phenol 3-I, 3-iodophenol], the pKa [6] is listed as 9.2, the “δ1, chemical shift” value (tKSI^D40N [5]) is listed as 16.8 ppm and the “δ2, chemical shift” value (tKSI^D40N [5]) is listed as 15.9 ppm.
For `Oc1cccc(Cl)c1` [Phenol 3-Cl], the “δ1, chemical shift” value (tKSI^D40N [5]) was 17.1 ppm and the “δ2, chemical shift” value (tKSI^D40N [5]) was 15.6 ppm.
In the case of `Oc1cc(F)cc(C(F)(F)F)c1` [Phenol 3-F-5-CF3, 3-fluoro-5-(trifluoromethyl)phenol], the pKa ([4]; solution of ionic strength 100 mM maintained with NaCl) is reported as 8.2, the “δ1, chemical shift” value (tKSI^D40N [5]) is reported as 16.4 ppm and the “δ2, chemical shift” value (tKSI^D40N [5]) is reported as 15.6 ppm.
In the case of `N#Cc1ccc(O)cc1` [Phenol 4-CN, 4-cyanophenol], the Kd ([2]; Kd from fit of pH dependence of binding to Equation 4, phenol pKa fixed at 8.0, enzyme pKa 5.5) is reported as 0.016 ± 0.002 µM and the “δ1, chemical shift” value (tKSI^D40N [5]) is reported as 15.6 ppm.
For `CC(=O)c1ccc(O)cc1` [Phenol 4-acetyl, 4-Acetylphenol], the pKa [6] is given as 8.1, the “δ1, chemical shift” value (tKSI^D40N [5]) is given as 16.0 ppm and the “δ2, chemical shift” value (tKSI^D40N [5]) is given as 15.4 ppm.
With `O=[N+]([O-])c1ccc(O)cc1C(F)(F)F` [Phenol 3-CF3-4-NO2] the pKa [4, 13] was 6.3, the “δ1, chemical shift” value (tKSI^D40N [5]) was 14.9 ppm and the “δ2, chemical shift” value (tKSI^D40N [5]) was 14.5 ppm.
In the case of `Cc1ccc(O)cc1` [Phenol 4-methyl, 4-methylphenol], the pKa [6] is listed as 10.2.
With `Oc1ccc(I)cc1` [Phenol 4-I] the “δ1, chemical shift” value (tKSI^D40N [5]) was 16.7 ppm.
For `Oc1ccc(F)cc1` [Phenol 4-F], the “∆Hion Lit value” [7] is given as 5.93 (0.05), the “∆Hion (heat of ionization)” value ([1]; Ionic strength 0.0) is given as 5.97 (0.03) and the “∆Hion (heat of ionization)” value ([1]; Ionic strength 0.1) is given as 6.21 (0.06). For the same compound, the Kd [2, 9] was 133 µM, the Kd [3, 9] was 320 µM and the “∆G of binding” value (pKSI^D40N; [10]) was -11.34 (0.02) kcal/mol. The “∆Hrel (relative enthalpy of binding)” value (pKSI^D40N; [11]) was -9.8 (0.1) kcal/mol.
`CC(C)c1cccc(O)c1` [Phenol 3-isopropyl, 3-isopropylphenol] gave a pKa [4, 12] of 9.9.
For `Oc1cc(F)c(F)c(F)c1` [3,4,5-F3, 3,4,5-trifluorophenol], the “∆Hion (heat of ionization)” value ([1]; Ionic strength 0.1) was 5.62 (0.06), the Kd [2, 14] was 6.1 µM and the Kd [3] was 17 µM. The pKa [4] was 8.2, the pKa [4, 12] was 8.2 and the “δ1, chemical shift” value (tKSI^D40N [5]) was 16.3 ppm. The “δ2, chemical shift” value (tKSI^D40N [5]) was 14.9 ppm, the “∆G of binding” value (pKSI^D40N; Direct Titration) was -11.51 (0.04) kcal/mol and the “∆Hrel (relative enthalpy of binding)” value (pKSI^D40N; Direct Titration) was -6.0 (0.1) kcal/mol. For the same compound, the “∆G of binding” value (pKSI^D40N; [10]) was -11.1 (0.1) kcal/mol and the “∆Hrel (relative enthalpy of binding)” value (pKSI^D40N; [11]) was -5.8 (0.3) kcal/mol.
With `Oc1cc(F)ccc1F` [2,5-F2] the pKa [4, 13] was 7.7^b.
In the case of `Oc1ccc(Cl)cc1` [Phenol 4-Cl, 4-chlorophenol], the Kd (tKSI^D40N [8]) is given as 7.9 ± 1.3 µM and the Kd [3] is given as 40 ± 7 µM.
`CC(C)c1ccc(O)cc1` [Phenol 4-isoproyl, 4-isopropylphenol] showed a pKa (physchem) of 10.
In the case of `Oc1ccccc1F` [Phenol 2-F, 2-fluorophenol], the pKa [6] is listed as 8.8.
`Oc1cc(F)cc(F)c1F` [2,3,5-F3, 2,3,5-trifluorophenol] gave a pKa [4, 12] of 7.1.
In the case of `Oc1ccccc1` [Phenol, phenol], the Kd (tKSI^D40N [8]) is listed as 61 ± 10 µM, the “∆Hion Lit value” [7] is listed as 6.1 (0.2) and the Kd [2, 14] is listed as 135 µM. The Kd [3, 14] was 410 µM, the Kd ([3]; apparent affinity, new assay, pH 7) was 430 ± 80 µM and the “∆G of binding” value (pKSI^D40N; [10]) was -11.3 (0.1) kcal/mol.
For `Oc1cccc(C(F)(F)F)c1` [Phenol 3-CF3], the pKa [4, 13] was 8.7, the “δ1, chemical shift” value (tKSI^D40N [5]) was 17.0 ppm and the “δ2, chemical shift” value (tKSI^D40N [5]) was 16.1 ppm.
Compound `Oc1cc(F)c(F)cc1F` [2,4,5-F3, 2,4,5-trifluorophenol] has a pKa [4, 12] of 7.7.
In the case of `CCc1cccc(O)c1` [Phenol 3-ethyl, 3-ethylphenol], the pKa [6] is given as 9.9.
In the case of `Oc1ccc(F)cc1F` [2,4-F2], the pKa [4, 13] is reported as 8.6^b.
In the case of `C[C@]12CCc3c(ccc4cc(O)ccc34)[C@@H]1CCC2=O` [equilenin], the pKa ([4]; solution of 100 mM ionic strength maintained with NaCl) is listed as 9.7, the “chemical shift of the principal downfield peak upon binding” value (tKSI^D40N [5]; spectrum not shown) is listed as 17.6 ppm and the Kd (KSI) is listed as 0.0001 to 0.001 µM.
In the case of `Oc1ccc(F)c(F)c1` [3,4-F2], the “∆Hion (heat of ionization)” value ([1]; Ionic strength 0.1) is reported as 7.04 (0.06), the Kd [2, 9] is reported as 31 µM and the Kd [3, 9] is reported as 69 µM. The “∆G of binding” value (pKSI^D40N; [10]) was -11.14 (0.01) kcal/mol and the “∆Hrel (relative enthalpy of binding)” value (pKSI^D40N; [11]) was -8.53 (0.05) kcal/mol.
